Experimental data reported in patent publication US7262189B2, “Benzothiazine and benzothiadiazine derivatives, method for preparing same and pharmaceutical compositions containing same” (Les Laboratoires Server, priority 2001, dated 2007).
Like-named read-outs stand apart in the source and are kept apart here.

Test system: AMPA receptors
Assay: Excitatory fluxes induced by AMPA in Xenopus oocytes (2-electrode voltage-clamp)
Assay type: cell-based
Conditions: Xenopus oocytes injected with rat cerebral cortex poly-(A+) mRNA, AMPA 10 μM
Protocol: Study of the Excitatory Fluxes Induced by AMPA in Xenopus oocytes
mRNAs are prepared from cerebral cortex of male Wistar rat by the guanidinium thiocyanate/phenol/chloroform method. The poly-(A^+) mRNAs are isolated by chromatography on oligo-dT cellulose and injected in an amount of 50 ng per oocyte. The oocytes are left to incubate for 2 to 3 days at 18° C. to allow expression of the receptors and are then stored at from 8 to 10° C.
Electrophysiological recording is carried out in a Plexiglass® chamber at from 20 to 24° C. in OR2 medium (J. Exp. Zool., 1973, 184, 321-334) by the 2-electrode “voltage-clamp” method, a 3rd electrode being placed in the bath to serve as reference.
All the compounds are administered via the incubation medium and the electric current is measured at the end of the period of administration. AMPA is used at a concentration of 10 μM. For each compound studied, the concentration that doubles (EC2×) or quintuples (EC5×) the intensity of the current induced by AMPA alone (5 to 50 nA) is determined.

With `O=S1(=O)NC2CCCN2c2ccc(OC(=S)Oc3ccccc3)cc21` (centres unmarked) [Example 2, O-(5,5-Dioxido-2,3,3a,4-tetrahydro-1H-pyrrolo[2,1-c][1,2,4]-benzothiadiazin-7-yl)O-phenyl thiocarbonate] as the compound, how does the Concentration doubling (EC2×) or quintupling (EC5×) the AMPA current (read-out: EC2× (concentration that doubles the intensity of the current induced by AMPA alone)) read?
Its Concentration doubling (EC2×) or quintupling (EC5×) the AMPA current is 1.8 µM.

And the Concentration doubling (EC2×) or quintupling (EC5×) the AMPA current (read-out: EC5× (concentration that quintuples the intensity of the current induced by AMPA alone))?
Its Concentration doubling (EC2×) or quintupling (EC5×) the AMPA current is 9.6 µM.
